This is an account of results in patent publication US10246457B2, “Indazole and azaindazole Btk inhibitors” (MERCK SHARP & DOHME CORP., priority 2015, dated 2019).

In test [1] the target is 25P Btk enzyme (un-activated full-length Btk) (Homo sapiens (Human), UniProt Q06187). As to the kind of experiment: 25P Btk Enzyme Activity Assay (LANCE TR-FRET). The class given is biochemical. To be noted: un-activated Btk (25P), 25 μM ATP, 60 minute compound and enzyme incubation; read-out: Btk binding IC50 (nM) with 25 P. As for the experimental part:
Preparation of Un-Activated Btk Enzyme (25P Btk)
Un-activated full-length Btk recombinant protein was purified from baculovirus-transfected Sf21 cells. […] This protein represents the un-activated state of the Btk enzyme.
25P Btk Enzyme Activity Assay
Btk enzymatic activity was determined with the LANCE (Lanthanide Chelate Excite) TR-FRET (lime-resolved fluorescence resonance energy transfer) assay. […] To each well of a black non-binding surface Corning 384-well microplate (Corning Catalog #3820), 5 nL of compound (2000 fold dilution in final assay volume of 10 μL) was dispensed, followed by the addition of 7.5 μL of 1× kinase buffer (50 mM Hepes 7.5, 10 mM MgCl2, 0.01% Brij-35, 1 mM EGTA, 0.05% BSA and 1 mM DTT) containing 26.67 pg/μL (266.7 pM) of 25P Btk enzyme (recombinant protein from baculovirus-transfected Sf9 cells: full-length Btk; MW=79378 Da). Following a 60 minute compound and enzyme incubation, each reaction was initiated by the addition of 2.5 μL 1× kinase buffer containing 8 μM biotinylated “A5” peptide (Biotin-EQEDEPEGDYFEWLE-NH2), and 100 μM ATP. The final reaction in each well of 10 consists of 200 pM 25P Btk, 2 μM biotin-A5-peptide, and 25 μM ATP. Phosphorylation reactions were allowed to proceed for 120 minutes. Reactions were immediately quenched by the addition of 20 uL of 1× quench buffer (15 mM EDTA, 25 mM Hepes 7.3, and 0.1% Triton X-100) containing detection reagents (0.626 nM of LANCE-Eu-W1024-anti-phosphoTyrosine antibody, PerkinElmer and 86.8 nM of Streptavidin-conjugated Dylight 650, Dyomics/ThermoFisher Scientific). After 60 minutes incubation with detection reagents, reaction plates were read on a PerkinElmer EnVision plate reader using standard TR-FRET protocol. Briefly, excitation of donor molecules (Eu-chelate:anti-phospho-antibody) with a laser light source at 337 nm produces energy that can be transferred to Dylight-650 acceptor molecules if this donor:acceptor pair is within close proximity. Fluorescence intensity at both 665 nm (acceptor) and 615 nm (donor) are measured and a TR-FRET ratio calculated for each well (acceptor intensity/donor intensity). IC50 values were determined by 4 parameter robust fit of TR-FRET ratio values vs. (Log10) compound concentrations.
In general terms: In TR-FRET formats the signal depends on donor and acceptor labels being close together.

Test [2] has as its target 100P Btk enzyme (activated full-length Btk) (Homo sapiens (Human), UniProt Q06187). Kind of test: 100P Btk Enzyme Activity Assay (LANCE TR-FRET). To be noted: activated Btk (100P), 25 μM ATP, 60 minute compound and enzyme incubation; top concentration 1000 nM; read-out: Btk binding IC50 (nM) with 100 P. It is filed as biochemical. As for the experimental part:
Activated full-length Btk recombinant enzyme was expressed and purified in the same manner as the […] enzyme, except an auto-phosphorylation step was added to the purification scheme. […] This protein represents the activated state of the Btk enzyme. […] Btk Enzyme Activity Assay Btk enzymatic activity was determined with the LANCE (Lanthanide Chelate Excite) TR-FRET (lime-resolved fluorescence resonance energy transfer) assay. […] MW=79378 Da). […] Phosphorylation reactions were allowed to proceed for 45 minutes. […] After 60 minutes incubation with detection reagents, reaction plates were read on a PerkinElmer EnVision plate reader using standard TR-FRET protocol. Briefly, excitation of donor molecules (Eu-chelate:anti-phospho-antibody) with a laser light source at 337 nm produces energy that can be transferred to Dylight-650 acceptor molecules if this donor:acceptor pair is within close proximity. Fluorescence intensity at both 665 nm (acceptor) and 615 nm (donor) are measured and a TR-FRET ratio calculated for each well (acceptor intensity/donor intensity). […] (Log10) compound concentrations.

Chain of 25P Btk enzyme (un-activated full-length Btk) (Q06187 whole entry): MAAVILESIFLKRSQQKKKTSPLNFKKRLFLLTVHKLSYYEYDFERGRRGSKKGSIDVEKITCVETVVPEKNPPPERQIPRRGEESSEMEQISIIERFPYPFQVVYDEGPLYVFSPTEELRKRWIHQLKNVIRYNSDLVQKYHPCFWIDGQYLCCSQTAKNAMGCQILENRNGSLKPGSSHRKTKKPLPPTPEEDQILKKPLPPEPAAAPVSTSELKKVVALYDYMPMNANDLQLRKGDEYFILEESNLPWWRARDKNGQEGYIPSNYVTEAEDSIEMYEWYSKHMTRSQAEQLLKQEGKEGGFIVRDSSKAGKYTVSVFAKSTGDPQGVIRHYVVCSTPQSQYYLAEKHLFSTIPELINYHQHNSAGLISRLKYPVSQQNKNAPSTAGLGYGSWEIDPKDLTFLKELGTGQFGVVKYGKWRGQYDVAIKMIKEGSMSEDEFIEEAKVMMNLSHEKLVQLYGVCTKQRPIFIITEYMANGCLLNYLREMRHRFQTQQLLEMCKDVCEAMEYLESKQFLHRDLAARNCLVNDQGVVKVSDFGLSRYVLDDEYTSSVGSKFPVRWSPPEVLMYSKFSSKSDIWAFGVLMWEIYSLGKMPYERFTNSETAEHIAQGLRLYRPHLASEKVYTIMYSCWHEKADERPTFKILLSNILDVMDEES
Chain of 100P Btk enzyme (activated full-length Btk) (Q06187 whole entry): as above

With `CC(C)(C)c1cc(F)c2c(=O)n(-c3cccc(-c4cc(-c5ccccn5)c5[nH]nc(N)c5c4)c3CO)ncc2c1` [Example 22, 2-(3-(3-amino-7-(pyridin-2-yl)-1H-indazol-5-yl)-2-(hydroxymethyl)phenyl)-6-(tert-butyl)-8-fluorophthalazin-1(2H)-one], the IC50 (as a rule, the concentration needed to halve the response being measured) in test [1] stood at 0.11 nM; in test [2], 17.4 nM.
On to `CC(C)(C)c1cc(F)c2c(=O)n(-c3cccc(-c4cc(-c5cnn(CC(=O)O)c5)c5[nH]nc(N)c5c4)c3CO)ncc2c1` [Example 23, 2-(4-(3-amino-5-(3-(6-(tert-butyl)-8-fluoro-1-oxophthalazin-2(1H)-yl)-2-(hydroxymethyl)phenyl)-1H-indazol-7-yl)-1H-pyrazol-1-yl)acetic acid], for which the 50% inhibitory concentration (IC50) amounted to 0.18 nM in test [1] and 20 nM in test [2].
The corresponding values for `CC(C)(C)c1cc(F)c2c(=O)n(-c3cccc(-c4cc(-c5cnn(C(C)(C)C(=O)O)c5)c5[nH]nc(N)c5c4)c3CO)ncc2c1` [Example 24, 2-(4-(3-amino-5-(3-(6-(tert-butyl)-8-fluoro-1-oxophthalazin-2(1H)-yl)-2-(hydroxymethyl)phenyl)-1H-indazol-7-yl)-1H-pyrazol-1-yl)-2-methylpropanoic acid] are 0.28 nM and 31.5 nM.
Regarding `CC(C)(C)c1cc(F)c2c(=O)n(-c3cccc(-c4cc(-c5cnn(C6CCOCC6)c5)c5[nH]nc(N)c5c4)c3CO)ncc2c1` [Example 25, 2-(3-(3-amino-7-(1-(tetrahydro-2H-pyran-4-yl)-1H-pyrazol-4-yl)-1H-indazol-5-yl)-2-(hydroxymethyl)phenyl)-6-(tert-butyl)-8-fluorophthalazin-1(2H)-one], the IC50 in test [1] was 0.18 nM; in test [2], 2.6 nM.
For `COCCn1cc(-c2cc(-c3cccc(-n4ncc5cc(C(C)(C)C)cc(F)c5c4=O)c3CO)cc3c(N)n[nH]c23)cn1` [Example 26, 2-(3-(3-amino-7-(1-(2-methoxyethyl)-1H-pyrazol-4-yl)-1H-indazol-5-yl)-2-(hydroxymethyl)phenyl)-6-(tert-butyl)-8-fluorophthalazin-1(2H)-one], in that order: 0.096 nM and 5.3 nM.
With `Cc1nn(C)cc1-c1cc(-c2cccc(-n3ncc4cc(C(C)(C)C)cc(F)c4c3=O)c2CO)cc2c(N)n[nH]c12` [Example 27, 2-(3-(3-amino-7-(1,3-dimethyl-1H-pyrazol-4-yl)-1H-indazol-5-yl)-2-(hydroxymethyl)phenyl)-6-(tert-butyl)-8-fluorophthalazin-1(2H)-one], the results for the IC50 in test [1] and in test [2] were 0.43 nM and 69.5 nM, respectively.
The corresponding values for `CC(C)(C)c1cc(F)c2c(=O)n(-c3cccc(-c4cc(-c5cnn6c5CCCC6)c5[nH]nc(N)c5c4)c3CO)ncc2c1` [Example 28, 2-(3-(3-amino-7-(4,5,6,7-tetrahydropyrazolo[1,5-a]pyridin-3-yl)-1H-indazol-5-yl)-2-(hydroxymethyl)phenyl)-6-(tert-butyl)-8-fluorophthalazin-1(2H)-one] are 1.7 nM and 360 nM.
